US5098826A, “Detection, isolation and purification of Clostridium difficile toxin A with toxin receptors” (Virginia Tech Intellectual Properties, Inc., priority 1990, dated 1992)

Assays:
toxin A = toxin A (Clostridioides difficile, UniProt P16154); details: cited from earlier work; for toxin A binding: Krivan et al., U.S. Pat. No. 4,863,852, Clark et al.
C. difficile toxin A = target: T1, C. difficile toxin A (Clostridioides difficile, UniProt P16154); assay: Crossed immunoelectrophoresis (X-IEP) toxin A binding assay; set-up: species or system Clostridium difficile; details: 100 μg toxin A mixed with 500 μg/ml conjugate, on ice 10 minutes, electrophoresis at 4° C., pH 8.6
T1 construct: The organism was cultured, and the toxin A was purified from the culture filtrate; made in house; host or cells: C. difficile VPI strain 10463 (natural producer, culture filtrate; not recombinant)
Method: 100 μg toxin A and 500 μg/ml of each of the oligosaccharide-HSA conjugates of Table 1 in PBS were mixed and incubated on ice for 10 minutes, then 5 μl of this mixture was assayed by X-IEP for toxin A binding on a 5×5 cm glass slide substantially as described by Lyerly et al., J. Clin. Microbiol. 17, 72-78 (1983). Briefly, wells (1 mm in diameter) were cut in gels composed of 1.2% (wt/vol) low electroendosmotic agarose (Sigma Chemical Co.) in 0.025M Tris-Tricine buffer (0.6 g agarose in 50 ml buffer) (pH 8.6). The Tris-Tricine buffer is prepared by combining the following and adding deionized water up to a volume of 1 L: Tris, 9.8 g; Ca-lactate, 0.106 g; Tricine, 4.3 g; NaN3, 0.2 g. For the first dimension, oligosaccharide-HSA sample (5 μl) was placed in a sample well in the lower corner of the plate. 0.1% bromphenol blue was placed in an upper corner well as a tracing dye, and the plate was subjected to electrophoresis at 10 V/cm at constant current and 4° C. The second dimension of the plate consisted of a 1.2% (wt/vol) agarose gel containing 0.1 ml of goat antiserum to C. difficile culture filtrate. Electrophoresis was performed at 10 V/cm for about 3 hours at 4° C. Gels were washed in 20 mM sodium phosphate with 130 mM NaCl, pH 7.4, stained with a staining solution (5 g Coomassie Blue R-250, 450 ml EtOH, […], and 450 ml deionized H2 O), and de-stained in the staining solution minus Coomassie Blue.
The principle behind the X-IEP assay is that the rate of migration of toxin A in an electric field is dependent on the net charge of the molecule, which is dependant on its isoelectric point and the pH of the electrophoresis medium. Toxin A has a slight negative charge at pH 8.6, which is the pH at which the X-IEP was carried out. The toxin migrates slowly in the applied electric field. HSA, on the other hand, has a relatively high net negative charge at pH 8.6. […]

toxin A, sequence (P16154 whole entry, looked up): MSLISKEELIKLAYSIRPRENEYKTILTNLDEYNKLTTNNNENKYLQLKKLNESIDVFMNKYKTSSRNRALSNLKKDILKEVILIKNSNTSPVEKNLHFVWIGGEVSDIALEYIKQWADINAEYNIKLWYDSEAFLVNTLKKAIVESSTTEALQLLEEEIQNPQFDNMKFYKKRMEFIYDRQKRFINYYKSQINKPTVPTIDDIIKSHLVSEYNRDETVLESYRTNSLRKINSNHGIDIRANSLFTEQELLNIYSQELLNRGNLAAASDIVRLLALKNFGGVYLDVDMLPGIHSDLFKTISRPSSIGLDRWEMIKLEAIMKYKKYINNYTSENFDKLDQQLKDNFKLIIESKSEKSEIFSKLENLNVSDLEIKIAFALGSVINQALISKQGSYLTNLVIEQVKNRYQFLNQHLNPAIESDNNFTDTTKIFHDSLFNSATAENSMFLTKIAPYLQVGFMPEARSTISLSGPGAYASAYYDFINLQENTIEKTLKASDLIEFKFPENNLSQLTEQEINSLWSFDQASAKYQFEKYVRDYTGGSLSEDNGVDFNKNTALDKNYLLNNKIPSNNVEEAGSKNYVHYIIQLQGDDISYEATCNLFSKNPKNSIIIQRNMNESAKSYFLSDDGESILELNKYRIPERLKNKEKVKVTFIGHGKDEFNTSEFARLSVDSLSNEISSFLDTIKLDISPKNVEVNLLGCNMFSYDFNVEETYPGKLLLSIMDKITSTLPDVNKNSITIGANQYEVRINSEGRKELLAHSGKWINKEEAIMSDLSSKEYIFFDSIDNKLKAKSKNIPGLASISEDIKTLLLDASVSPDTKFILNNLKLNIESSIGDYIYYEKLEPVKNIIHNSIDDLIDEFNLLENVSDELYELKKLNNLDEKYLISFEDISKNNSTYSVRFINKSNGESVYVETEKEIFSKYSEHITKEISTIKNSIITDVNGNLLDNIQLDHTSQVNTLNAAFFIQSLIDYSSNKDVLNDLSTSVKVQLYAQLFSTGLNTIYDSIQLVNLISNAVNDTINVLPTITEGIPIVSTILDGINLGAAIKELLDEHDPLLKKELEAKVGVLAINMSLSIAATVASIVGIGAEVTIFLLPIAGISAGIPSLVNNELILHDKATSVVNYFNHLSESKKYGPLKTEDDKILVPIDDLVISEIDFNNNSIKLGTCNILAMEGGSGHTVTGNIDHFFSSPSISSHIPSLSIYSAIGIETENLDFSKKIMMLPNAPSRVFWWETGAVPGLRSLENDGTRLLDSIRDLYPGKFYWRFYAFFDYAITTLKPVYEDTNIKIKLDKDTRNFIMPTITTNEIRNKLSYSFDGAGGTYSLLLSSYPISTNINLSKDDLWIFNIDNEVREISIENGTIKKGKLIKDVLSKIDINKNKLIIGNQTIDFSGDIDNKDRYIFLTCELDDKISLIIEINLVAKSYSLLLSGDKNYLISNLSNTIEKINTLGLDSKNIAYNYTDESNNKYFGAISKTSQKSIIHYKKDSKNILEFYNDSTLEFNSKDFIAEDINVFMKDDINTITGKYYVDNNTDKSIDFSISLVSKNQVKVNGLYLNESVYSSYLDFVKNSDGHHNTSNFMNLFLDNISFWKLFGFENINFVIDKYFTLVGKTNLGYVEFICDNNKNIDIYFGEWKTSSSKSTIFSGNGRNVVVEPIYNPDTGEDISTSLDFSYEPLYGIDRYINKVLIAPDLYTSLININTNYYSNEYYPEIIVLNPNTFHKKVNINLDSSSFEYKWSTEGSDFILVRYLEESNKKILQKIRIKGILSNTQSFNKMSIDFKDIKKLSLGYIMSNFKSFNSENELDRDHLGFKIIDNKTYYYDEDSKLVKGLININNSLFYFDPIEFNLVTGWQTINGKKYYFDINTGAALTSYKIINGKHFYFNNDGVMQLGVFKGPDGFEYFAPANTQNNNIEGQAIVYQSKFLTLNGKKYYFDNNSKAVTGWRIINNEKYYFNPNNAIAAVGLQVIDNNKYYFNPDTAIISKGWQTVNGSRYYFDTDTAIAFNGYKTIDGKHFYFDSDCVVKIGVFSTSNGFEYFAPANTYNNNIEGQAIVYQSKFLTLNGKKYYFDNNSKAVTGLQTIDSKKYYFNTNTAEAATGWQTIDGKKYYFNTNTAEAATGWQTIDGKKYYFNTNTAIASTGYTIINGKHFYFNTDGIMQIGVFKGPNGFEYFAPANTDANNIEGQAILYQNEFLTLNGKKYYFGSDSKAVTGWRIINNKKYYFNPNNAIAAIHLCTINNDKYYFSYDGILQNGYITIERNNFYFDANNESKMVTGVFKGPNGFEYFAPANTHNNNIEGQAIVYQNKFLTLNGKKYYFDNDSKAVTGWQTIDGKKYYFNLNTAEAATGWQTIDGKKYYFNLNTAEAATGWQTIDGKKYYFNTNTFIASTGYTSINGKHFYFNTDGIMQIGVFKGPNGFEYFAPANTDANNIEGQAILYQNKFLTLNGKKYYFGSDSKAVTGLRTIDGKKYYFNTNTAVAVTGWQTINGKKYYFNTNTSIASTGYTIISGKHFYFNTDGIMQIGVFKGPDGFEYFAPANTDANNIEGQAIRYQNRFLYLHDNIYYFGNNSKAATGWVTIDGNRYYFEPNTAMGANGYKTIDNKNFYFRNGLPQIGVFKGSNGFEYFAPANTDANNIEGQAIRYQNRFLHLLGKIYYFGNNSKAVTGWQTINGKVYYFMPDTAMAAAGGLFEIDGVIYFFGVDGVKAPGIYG

For `CC(=O)N[C@H]1C(O)O[C@H](CO)[C@@H](O[C@@H]2O[C@H](CO)[C@H](O)[C@H](O[C@H]3O[C@H](CO)[C@H](O)[C@H](O)[C@H]3O)[C@H]2O)[C@@H]1O` (some centres unmarked) [Galα(1→3)Galβ(1→4)GlcNAc], the “toxin A binding at 37° C.” value (toxin A; 37° C., U.S. Pat. No. 4,863,852) is given as “not detected”, the “toxin A binding” value (toxin A) is given as “binds” and the “temperature of maximal binding of toxin A” value (toxin A; U.S. Pat. No. 4,863,852) is given as 4 °C.

For `CC(=O)N[C@H]1C(O)O[C@H](CO)[C@@H](O[C@@H]2O[C@H](CO)[C@H](O)[C@H](O[C@H]3O[C@H](CO)[C@H](O)[C@H](O)[C@H]3O)[C@H]2O[C@@H]2O[C@@H](C)[C@@H](O)[C@@H](O)[C@@H]2O)[C@@H]1O` (some centres unmarked) [Galα(1→3)[Fucα-(1→2)]Galβ(1→4)GlcNAc, Galα(1→3)[Fucα(1→2)]Galβ(1→4)GlcNAc], the “toxin A binding” value (toxin A) is given as “does not bind”.

In the case of `CC(=O)N[C@H]1[C@H](O[C@H]2[C@@H](O)[C@@H](CO)O[C@@H](O[C@H]3[C@H](O)[C@@H](O)C(O)O[C@@H]3CO)[C@@H]2O)O[C@H](CO)[C@@H](O[C@@H]2O[C@H](CO)[C@H](O)[C@H](O)[C@H]2O)[C@@H]1O` (some centres unmarked) [LNnT, Galβ(1→4)GlcNAcβ(1→3)Galβ(1→4)Glc], the “toxin A binding” value (toxin A) is given as “prevents toxin A from binding” and the “Toxin A Binding X-IEP (altered migration of toxin A)” value (“Toxin A Binding X-IEP” for short) (C. difficile toxin A) is given as “did not bind the toxin”.

With “Secretory Component: human protein known to contain the X antigen” the “Toxin A Binding X-IEP” value (C. difficile toxin A; listed as SC) was “same behavior”.

B1: Carcinoembryonic Antigen: human protein known to contain the X antigen (protein, UniProt P06731 35-685, looked up)
Cell adhesion molecule CEACAM5: KLTIESTPFNVAEGKEVLLLVHNLPQHLFGYSWYKGERVDGNRQIIGYVIGTQQATPGPAYSGREIIYPNASLLIQNIIQNDTGFYTLHVIKSDLVNEEATGQFRVYPELPKPSISSNNSKPVEDKDAVAFTCEPETQDATYLWWVNNQSLPVSPRLQLSNGNRTLTLFNVTRNDTASYKCETQNPVSARRSDSVILNVLYGPDAPTISPLNTSYRSGENLNLSCHAASNPPAQYSWFVNGTFQQSTQELFIPNITVNNSGSYTCQAHNSDTGLNRTTVTTITVYAEPPKPFITSNNSNPVEDEDAVALTCEPEIQNTTYLWWVNNQSLPVSPRLQLSNDNRTLTLLSVTRNDVGPYECGIQNELSVDHSDPVILNVLYGPDDPTISPSYTYYRPGVNLSLSCHAASNPPAQYSWLIDGNIQQHTQELFISNITEKNSGLYTCQANNSASGHSRTTVKTITVSAELPKPSISSNNSKPVEDKDAVAFTCEPEAQNTTYLWWVNGQSLPVSPRLQLSNGNRTLTLFNVTRNDARAYVCGIQNSVSANRSDPVTLDVLYGPDTPIISPPDSSYLSGANLNLSCHSASNPSPQYSWRINGIPQQHTQVLFIAKITPNNNGTYACFVSNLATGRNNSIVKSITVSASGTSPGLSA
For B1, the “Toxin A Binding X-IEP” value (C. difficile toxin A; listed as CEA) was “same behavior”.
